Experimental data from patent US10836758B2, “Acyl sulfonamide NaV1.7 inhibitors” (BRISTOL-MYERS SQUIBB COMPANY, priority 2016, dated 2020).

Biological target: NaV1.7 (Homo sapiens (Human), UniProt Q15858)
Assay: NaV1.7 IC50 of Table 1 (IonWorks Barracuda population patch clamp or ligand binding assay; table does not say which)
Type: cell-based
Settings: HEK 293 cells expressing NaV1.7
Experimental: Ion Works Barracuda population patch clamp (PPC). PPC measurements were performed using an IonWorks Barracuda instrument (Molecular Devices Corporation, Union City, Calif.) using either PatchPlate™ PPC substrates (Molecular Devices Corporation) with 64 apertures per well. The ability to average currents from 64 recordings from each well greatly improves data consistency and recording success rates in the measurement of NaV1.7 mediated ionic currents. Calculated leak current was digitally subtracted from the total cell NaV1.7 current for each sample point acquired.
NaV1.7 currents were elicited by a voltage clamp protocol designed to bias the NaV1.7 channels to their inactivated state as follows. […] This was followed by a relatively brief hyperpolarization to −100 mv for 300 ms, then a 20 msec test pulse to −20 mV to elicit the NaV1.7 current used to measure the pharmacology of all test compounds. Compounds were incubated for 600 sec between the pre- and post-compound reads. […] The same solutions were used to record NaV1.5 currents, with the following voltage clamp protocol. NaV1.5 currents were elicited by a voltage clamp protocol designed to bias the NaV1.5 channels to their inactivated state as follows. […] This was followed by a relatively brief hyperpolarization to −100 mv for 30 ms, then a 20 msec test pulse to −10 mV to elicit the NaV1.5 current used to measure the pharmacology of all test compounds.
HEK 293 cells expressing NaV1.7 and NaV1.5 channels, were used (Essen Biosciences, Ann Arbor, Mich.). […] Cells were grown to 70% to 90% confluence in a flask and removed from the incubator (37° C., 5% CO2) 1 to 3 days after plating. Growth medium was aspirated from the culture flasks. […] Next a total of 2 mL TrypLE (Gibco) solution was added, and the flasks containing cells were sat for 3 min at RT, after which, the cells became visibly rounded and were easily dislodged from the bottom of the flask with a few brief taps on a solid surface. A total of 8 mL of media was added to the flask to inactivate the TrypLE, and the mixture was centrifuged at 910 rpm for 4 min. The cell supernatant was decanted, and the cell pellets were resuspended in 5-6 mL of external solution followed by gentle triturations using a 10 ml pipette, and transferred to a 15 ml conical tube and immediately brought to the IW Barracuda instrument.
Peak membrane currents were analyzed with IW Barracuda software and exported to Excel for further analysis. Concentration response curve fitting was performed with BMS in-house software. IC50 values were obtained by fits of the Hill equation to the average percent inhibition data plotted versus compound concentration. […] Results are reported in Table 1 (NaV1.7 Barra IC50 in nM and NaV1.5 Barra IC50 in nM).
hNaV1.7 binding affinities were determined with a filtration binding assay using purified membranes from HEK293 cells stably expressing hNaV1.7. HEK293 cells from a 10-stack cell culture flask (approximately 10^10 cells) were dissociated, frozen, and stored at −80° C. To prepare membranes, the frozen cell pellet was thawed and suspended in 6 ml hypotonic lysis buffer (50 mM HEPES, 0.1% mammalian protease inhibitor cocktail). 1 ml of resuspended cells was added to an additional 6 ml of lysis buffer and homogenized with 30 strokes of a tight pestle in a glass homogenizer. Homogenate was centrifuged at 1000×g for 10 minutes at 4° C. and the resulting supernatant was further centrifuged at 38,500×g for 60 minutes at 4° C. The resulting pellet was resuspended in binding buffer (50 mM HEPES, 130 mM NaCl, 5.4 mM KCl, 0.8 mM MgCl2, 5 mM glucose, pH 7.4) and needle homogenized with a 25 gauge needle. Protein concentration was determined with a BCA protein assay. Purified membranes were aliquoted, flash frozen in an ethyl alcohol dry ice bath, and stored at −80° C.

Chain of NaV1.7 (Q15858 whole entry): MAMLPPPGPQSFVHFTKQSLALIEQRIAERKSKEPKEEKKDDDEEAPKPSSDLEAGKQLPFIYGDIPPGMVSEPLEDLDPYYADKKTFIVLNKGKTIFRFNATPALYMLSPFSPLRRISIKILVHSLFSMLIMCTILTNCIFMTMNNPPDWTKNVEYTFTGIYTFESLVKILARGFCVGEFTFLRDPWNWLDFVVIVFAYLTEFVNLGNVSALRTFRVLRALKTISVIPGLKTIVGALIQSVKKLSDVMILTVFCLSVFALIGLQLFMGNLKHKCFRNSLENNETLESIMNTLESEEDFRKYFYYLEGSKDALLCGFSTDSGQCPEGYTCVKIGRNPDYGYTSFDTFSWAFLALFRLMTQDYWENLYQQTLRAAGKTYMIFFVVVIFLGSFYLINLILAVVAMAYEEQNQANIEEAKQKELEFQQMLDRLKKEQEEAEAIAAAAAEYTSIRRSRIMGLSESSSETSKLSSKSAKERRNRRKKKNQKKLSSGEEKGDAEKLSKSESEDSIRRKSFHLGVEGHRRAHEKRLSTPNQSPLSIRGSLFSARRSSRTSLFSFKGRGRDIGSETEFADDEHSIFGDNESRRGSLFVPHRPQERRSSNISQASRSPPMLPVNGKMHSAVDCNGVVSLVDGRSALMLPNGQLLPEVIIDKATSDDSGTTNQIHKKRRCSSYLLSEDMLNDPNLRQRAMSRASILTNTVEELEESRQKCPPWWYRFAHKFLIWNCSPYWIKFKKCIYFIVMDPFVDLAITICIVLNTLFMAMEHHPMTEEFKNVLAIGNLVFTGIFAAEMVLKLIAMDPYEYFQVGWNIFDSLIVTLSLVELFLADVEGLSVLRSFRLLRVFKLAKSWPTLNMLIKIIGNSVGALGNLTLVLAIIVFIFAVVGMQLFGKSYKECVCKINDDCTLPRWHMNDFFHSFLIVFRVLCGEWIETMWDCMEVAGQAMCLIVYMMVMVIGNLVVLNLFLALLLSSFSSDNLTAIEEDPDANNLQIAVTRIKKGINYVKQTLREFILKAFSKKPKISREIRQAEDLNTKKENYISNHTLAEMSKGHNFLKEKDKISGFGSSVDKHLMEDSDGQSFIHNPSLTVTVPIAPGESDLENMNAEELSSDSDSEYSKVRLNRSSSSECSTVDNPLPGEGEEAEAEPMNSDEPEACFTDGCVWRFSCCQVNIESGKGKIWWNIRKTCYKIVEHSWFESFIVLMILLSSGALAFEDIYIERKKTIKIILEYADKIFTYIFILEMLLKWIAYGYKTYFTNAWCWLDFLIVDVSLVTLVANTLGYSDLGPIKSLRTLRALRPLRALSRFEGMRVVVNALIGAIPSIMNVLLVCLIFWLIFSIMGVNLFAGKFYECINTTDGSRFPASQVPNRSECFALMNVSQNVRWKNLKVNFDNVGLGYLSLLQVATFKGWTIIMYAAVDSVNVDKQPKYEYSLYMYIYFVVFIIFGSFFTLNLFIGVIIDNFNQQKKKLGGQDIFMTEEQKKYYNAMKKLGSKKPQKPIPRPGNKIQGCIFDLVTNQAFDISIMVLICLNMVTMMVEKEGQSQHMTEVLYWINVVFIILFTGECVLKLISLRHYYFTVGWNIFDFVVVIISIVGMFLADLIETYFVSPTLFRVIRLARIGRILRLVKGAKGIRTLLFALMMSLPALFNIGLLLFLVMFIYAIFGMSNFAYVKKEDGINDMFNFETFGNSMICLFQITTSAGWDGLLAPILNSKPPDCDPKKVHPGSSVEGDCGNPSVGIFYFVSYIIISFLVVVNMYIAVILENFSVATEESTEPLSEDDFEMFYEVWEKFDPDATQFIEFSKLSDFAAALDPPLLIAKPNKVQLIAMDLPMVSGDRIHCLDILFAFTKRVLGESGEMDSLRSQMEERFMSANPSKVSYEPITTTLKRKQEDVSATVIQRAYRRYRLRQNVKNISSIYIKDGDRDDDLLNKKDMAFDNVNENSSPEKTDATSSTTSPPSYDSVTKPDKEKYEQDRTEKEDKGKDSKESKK

| SMILES | IC50 [nM] |
| --- | --- |
| O=S(=O)(Nc1nccs1)c1cc(Cl)c(NC[C@@H]2CCCNC2)cc1F [Example 43, (R)-5-Chloro-2-fluoro-4-((piperidin-3-ylmethyl)amino)-N-(thiazol-2-yl)benzenesulfonamide] | 272 |
| O=S(=O)(Nc1ncns1)c1cc(F)c(OCCC2(c3ccc(Cl)cc3)CCNCC2)cc1F [Example 44, 4-(2-(4-(4-Chlorophenyl)piperidin-4-yl)ethoxy)-2,5-difluoro-N-(1,2,4-thiadiazol-5-yl)benzenesulfonamide] | 124 |
| O=S(=O)(Nc1ncns1)c1cc(Cl)c(OCCC2(c3ccc(Cl)cc3)CCNCC2)cc1F [Example 45, 5-Chloro-4-(2-(4-(4-chlorophenyl)piperidin-4-yl)ethoxy)-2-fluoro-N-(1,2,4-thiadiazol-5-yl)benzenesulfonamide] | 39 |
| O=S(=O)(Nc1ncns1)c1cc(F)c(OCCC2(c3ccc(Cl)c(F)c3)CCNCC2)cc1F [Example 46, 4-(2-(4-(4-Chloro-3-fluorophenyl)piperidin-4-yl)ethoxy)-2,5-difluoro-N-(1,2,4-thiadiazol-5-yl)benzenesulfonamide] | 110 |
| O=S(=O)(Nc1ncns1)c1cc(Cl)c(OCCC2(c3ccc(Cl)c(F)c3)CCNCC2)cc1F [Example 47, 5-Chloro-4-(2-(4-(4-chloro-3-fluorophenyl)piperidin-4-yl)ethoxy)-2-fluoro-N-(1,2,4-thiadiazol-5-yl)benzenesulfonamide] | 33 |
| NC1CCC(CCOc2cc(F)c(S(=O)(=O)Nc3ncns3)cc2F)CC1 (stereo not shown) [Example 60, 4-(2-(4-Aminocyclohexyl)ethoxy)-2,5-difluoro-N-(1,2,4-thiadiazol-5-yl)benzenesulfonamide] | 367 |
| CNC1CCC(COc2cc(F)c(S(=O)(=O)Nc3ncns3)cc2F)(Cc2ccc(Cl)c(F)c2)CC1 (stereo not shown) [Example 63, 4-((1-(4-Chloro-3-fluorobenzyl)-4-(methylamino)cyclohexyl)methoxy)-2,5-difluoro-N-(1,2,4-thiadiazol-5-yl)benzenesulfonamide] | 68 |
| O=S(=O)(Nc1ncns1)c1cc(F)c(OCC2(Cc3ccc(Cl)c(F)c3)CCC(O)CC2)cc1F (stereo not shown) [Example 64, 4-((1-(4-chloro-3-fluorobenzyl)-4-hydroxycyclohexyl)methoxy)-2,5-difluoro-N-(1,2,4-thiadiazol-5-yl)benzenesulfonamide] | 285 |
| O=S(=O)(Nc1nccs1)c1cc(Cl)c(N2CCCC(C3CCNCC3)C2)cc1F (stereo not shown) [Example 66, 4-([3,4′-bipiperidin]-1-yl)-5-chloro-2-fluoro-N-(thiazol-2-yl)benzenesulfonamide] | 291 |
| O=S(=O)(Nc1nccs1)c1cc(Cl)c(N2CCC3CCNCC3C2)cc1F (stereo not shown) [Example 67, 5-chloro-2-fluoro-4-(octahydro-2,7-naphthyridin-2(1H)-yl)-N-(thiazol-2-yl)benzenesulfonamide] | 267 |
| COCC1CCN(c2cc(F)c(S(=O)(=O)Nc3nccs3)cc2Cl)C1 (stereo not shown) [Example 69, 5-chloro-2-fluoro-4-(3-(methoxymethyl)pyrrolidin-1-yl)-N-(thiazol-2-yl)benzenesulfonamide] | 568 |
| O=S(=O)(Nc1nccs1)c1cc(Cl)c(NCCC2CCCCN2O)cc1F (stereo not shown) [Example 75, 5-chloro-2-fluoro-4-((2-(1-hydroxypiperidin-2-yl)ethyl)amino)-N-(thiazol-2-yl)benzenesulfonamide] | 41 |

Continued by falling IC50, values first:

| IC50 [nM] | SMILES |
| --- | --- |
| 806 | O=S(=O)(Nc1nccs1)c1cc(Cl)c(N2CCC(CO)C2)cc1F (stereo not shown) [Example 70, 5-chloro-2-fluoro-4-(3-(hydroxymethyl)pyrrolidin-1-yl)-N-(thiazol-2-yl)benzenesulfonamide] |
| 286 | CN1C(C)(C)CC(Nc2cc(F)c(S(=O)(=O)Nc3nccs3)cc2Cl)CC1(C)C [Example 42, 5-Chloro-2-fluoro-4-((1,2,2,6,6-pentamethylpiperidin-4-yl)amino)-N-(thiazol-2-yl)benzenesulfonamide] |
| 221 | O=S(=O)(Nc1nccs1)c1cc(Cl)c(NCCC2CCCO2)cc1F (stereo not shown) [Example 39, 5-Chloro-2-fluoro-4-((2-(tetrahydrofuran-2-yl)ethyl)amino)-N-(thiazol-2-yl)benzenesulfonamide] |
| 210 | O=S(=O)(Nc1nccs1)c1cc(Cl)c(N[C@H]2CC[C@@H](O)CC2)cc1F [Example 36, 5-Chloro-2-fluoro-4-(((1s,4s)-4-hydroxycyclohexyl)amino)-N-(thiazol-2-yl)benzenesulfonamide] |
| 138 | COCCN1CCCC1CNc1cc(F)c(S(=O)(=O)Nc2nccs2)cc1Cl (stereo not shown) [Example 68, 5-chloro-2-fluoro-4-(((1-(2-methoxyethyl)pyrrolidin-2-yl)methyl)amino)-N-(thiazol-2-yl)benzenesulfonamide] |
| 117 | O=S(=O)(Nc1ncns1)c1cc(F)c(OCCC2(c3ccccc3)CCC(O)CC2)cc1F (stereo not shown) [Example 48, 2,5-Difluoro-4-(2-(4-hydroxy-1-phenylcyclohexyl)ethoxy)-N-(1,2,4-thiadiazol-5-yl)benzenesulfonamide] |
| 98 | O=S(=O)(Nc1nccs1)c1cc(Cl)c(NC2CCC3CNCC32)cc1F (stereo not shown) [Example 65, 5-chloro-2-fluoro-4-((octahydrocyclopenta[c]pyrrol-4-yl)amino)-N-(thiazol-2-yl)benzenesulfonamide] |
